For experiment [1], the system named is MT4. The experiment is described as follows: Antiviral activity expressed as ability to prevent the HIV-induced cytopathic effect in MT-4 cells at a dose of 100 ug/ml; No significant activity. The experiment is classed as functional, cell-based. Particulars: Homo sapiens.
For experiment [2], the system named is MT4. The experiment in a line: Cytotoxicity by the MTT assay in MT-4 cells at a dose of 100 ug/ml; No significant activity. Format: functional, cell-based. Particulars: Homo sapiens.

The text below walks through data of ChEMBL document CHEMBL1152050, “Asymmetric synthesis of enantiomerically pure 4-fluoroalkyl-2,3-dideoxy nucleosides” (Bioorg Med Chem Lett, 1994).

Take `Cc1cn(C2CC[C@](CO)(CF)O2)c(=O)[nH]c1=O` (single isomer, unassigned): the Activity result in the experiment on MT4 [1] and in the experiment on MT4 [2] was “No significant activity” in each case.

On to `Cc1cn([C@@H]2CCC(CO)(CF)O2)c(=O)[nH]c1=O` (single isomer, unassigned), for which the Activity result in the experiment on MT4 [1] and with MT4 [2] was “No significant activity” throughout.
